# Experimental data: patent US20120172375A1, “COMPOUNDS AND METHODS OF PROMOTING OLIGODENDROCYTE PRECURSOR DIFFERENTIATION” (priority 2008, published 2012)
# Experiments:
# [1] = tested on: oligodendrocyte progenitor cells; test: Western blot for myelin proteins PLP/DM20 and CNPase in treated oligodendrocyte progenitor cells; type: cell-based, mouse; conditions: Table 3, 10 μM, 48 hrs
# Description: (§1) Oligodendrocyte progenitors were generated from embryonic neural progenitors growing in cell aggregates known as neurospheres (Nphs). Nph were prepared from embryos at 14.5 days of gestation obtained from timed pregnant females of either wild type mice or the proteolipid protein-enhanced-green fluorescence protein (Plp-EGFP) transgenic mouse. In brief, after separation of meninges and cerebellum, cerebrum tissue was mechanically triturated with a 1 ml Gilson pipette until total tissue disaggregation was achieved, filtered through a 70 μm cell strainer (Fisher Scientific, Pittsburg, Pa.) and plated in 25 cm^2 plastic culture flasks (2 brains/flask). Nph proliferation media (NPM) was DMEM/F12, B27 neuronal supplement (Gibco, Baltimore, Md.) and 10 ng/ml EGF (Sigma, St. Louis, Mo.). After 48-72 hr, floating Nphs were passaged at a 1:3 ratio in the same medium every 3-4 days. To generate oligodendrocyte progenitors, single cells suspensions were obtained by chemical disgregation with the mouse NeuroCult dissociation kit (StemCell Technologies, Alberta, Canada). The single cell suspension was filtered through a 70 μm cell strainer and plated on 96-well poly-D-Lysine (PDL)-coated plates at a cell density of 1.5×10^4 cells/cm^2. Cells were maintained in NPM supplemented with 10 ng/ml PDGF/bFGF instead of EGF. Bipolar, oligodendrocyte progenitor cells were observed 24 hours after plating. At the Moment of treatment to induce oligodendrocyte progenitor differentiation, the media was changed to OPC differentiation media containing NPM with a 1:10 dilution of PDGF/FGF.
# For myelin protein analyses, cells were grown on 100 mm culture plates and after exposure to small molecules or controls were washed twice with ice-cold PBS. RIPA lysis buffer was added to the plates and the cells were scraped, collected and disrupted with a homogenizer on ice. Cell homogenates were then centrifuged at 6,000×g, 10 min, 4° C. and supernatants separated in a fresh tube. After adding Laemli loading buffer, proteins were denaturized at 70° C. for 10 mm and loaded in gradient gels (4-20, Criterion, BioRad, Calif.). Electroforetically separated proteins were electro-transferred to nitrocellulose membranes in a semi-dry apparatus and unspecific bonds were blocked with IRdye blocking solution for at least 1 hr at RT. After washing twice with TBS-T, primary antibodies were added and incubated over night at 4° C. Membranes were incubated with secondary, IRdye-infrared conjugated antibodies for 1 hr at RT and visualized on the Odyssey scanner.
# (§2) The primary screening to select positive compounds was performed at a standard concentration of 10 μM with cell morphology analysis 48 hrs after treatment. Dose response curves at 48 hrs treatment time were performed to determine the minimum concentration compounds A, A-7 and B needed to induce cell maturation. We assessed oligodendrocyte differentiation by cell morphology changes, green fluorescence in cells generated from or Plp-EGFP transgenic mouse, immunostaining for myelin proteins and western blot for expression of the oligodendrocyte markers PLP/DM20 and 2′,3′, cyclic nucleotide 3′ phosphohydrolase (CNPase). EC50 values were also calculated based on results of western blot for myelin proteins and subsequent band densitometry analysis. Additionally, we followed cell differentiation induced over long time exposure to compounds A and B (7 days, 0.1-10 μM).
# [2] = tested on: oligodendrocyte progenitor cells; test: Immunocytochemistry for PLP/DM20 and MBP, count of differentiated cells; type: cell-based, mouse; conditions: Table 3, 10 μM, 48 hrs
# Description: Immunodetection of oligodendrocyte and myelin markers was performed. In brief, Oligodendrocyte cells plated on PDL-coated dishes were initially fixed in 2% paraformaldehyde (PFA) for 10 min at room temperature (RT) and then 4% PFA for 15 min, washed three times with PBS and permeabilized with 0.1% Triton X100 for 10 min at RT. After blocking with 3% BSA in PBS for 60 min a RT, the cells were incubated with primary antibodies at the indicated concentrations overnight (ON) at 4° C. The cells were washed three times with cold PBS incubated with secondary antibodies for 45 min at RT, and washed again before mounting. Immunostaining of tissue sections prepared with a sliding microtome (30 μm) was performed. In brief, tris buffered saline (TBS) containing 100 nM Sodium fluoride (TBSS) was used the all dilutions and washes. For antigen retrieval, sections were washed 3 times in TBSS, incubated in 5% methanol and 3% H2O2 for 10 min, washed 2 times, and then incubated in 10% Triton X-100 for 20 min. Blocking of unspecific bonds was performed by incubating the tissue sections with 10% NGS for 1 hr. Primary antibodies were diluted in 3% BSA containing 0.02% Triton X-100 and sections were incubated overnight in this solution. The next day the sections were washed 3 times in TBSS, followed by 1 hr incubation in secondary antibodies (1:1000) at 4° C. After several washes, the sections were mounted using Vectashield (Vector Laboratories, Burlingame, Calif.). Visualization of immunostained cells and tissue was performed on a Leica DMR (Wetzlar, Germany) or a Leica SP5 confocal microscope.
# as §2
# Compound A-7-induced oligodendrocyte progenitor maturation was also analyzed in comparison to control cells in immunostaining experiments to detect the myelin proteins MBP and PLP. Positive cells for these markers showing processes formation and membranous structures were counted versus total cells and counterstained with the nuclear dye Dapi after 48 hrs (Tables 3 and 4) and 7 days treatment with 0.1, 1 or 10 μM compound A-7 (FIG. 2, B).
# [3] = tested on: oligodendrocyte progenitors; test: Primary/secondary screening: oligodendrocyte progenitor morphology changes and Plp-EGFP fluorescence; type: cell-based, mouse
# Description: as §1, with “At the Moment of treatment to induce oligodendrocyte progenitor differentiation, the media was changed to OPC differentiation media containing NPM with a 1:10 dilution of PDGF/FGF.” left out
# The small molecule library consists of handcrafted drug-like organic molecules with molecular weight in a range of 250-550, dissolved in DMSO at concentration of 5 mg/ml or […]. Their structure and >95% purity have been validated by NMR. […] Oligodendrocyte progenitor differentiation was scored using as 4 scale values as follows: 1: bipolar, undifferentiated; 2: bipolar to tripolar, initiated differentiation; 3: multibranched, differentiated cells; 4: multibranched, differentiated cells showing membranous structures (FIG. 1).
# Differentiation induced by selected compounds was further validated by fluorescence microscopy in cells generated from our Plp-EGFP transgenic mouse. Increased fluorescence in treated oligodendrocyte progenitor was indicative of cell maturation and was again scored following the same scale. […] These were analyzed for cell toxicity assays by MTT were yellow 3-(4,5-Dimethylthiazol-2-yl)-2,5-diphenyltetrazolium bromide, a tetrazole (MTT) is reduced to purple formazan in the mitochondria of living cells, showing a solution color change measurable by OD620-590 (Data not shown). Further oligodendrocyte progenitor maturation in response to selected compounds was assessed by induction of myelin protein expression as determined by immunocytochemistry and western blot. […]
# Akt = Akt activity in cell extracts of oligodendrocyte precursors (phosphorylation of Akt substrate GSKα/β); type: cell-based; conditions: 10 μM, 48 h
# Text: Oligodendrocyte precursor differentiation requires the activation of a complex, highly controlled machinery that signals cells to stop migrating/proliferating and start extending processes and producing myelin components. A number of inducers and intracellular mediators of this process have been identified in vitro and in viva. […] Therefore, we studied whether our selected small molecules induced Akt signaling in oligodendrocyte precursors. We analyzed Akt activity in cell extracts of oligodendrocyte precursors treated with selected compounds (10 μM, 48 h), as determined by phosphorylation of Akt substrate GSKα/β.
Molecule,"PLP/DM20 Expression (WB, % of Control) [1]","Differentiated Cells (IC, % of Control) [2]",induction of oligodendrocyte precursor maturation [3],other results
CCS(=O)(=O)N1CCN(C(=O)COc2ccccc2)CC1,148 ± 10.6 n = 2 % of Control,195 ± 10.9 n = 3; p <0.05 % of Control,–,–
CCS(=O)(=O)N1CCN(C(=O)COc2ccc(C)cc2)CC1,160.7 ± 8.2 n = 2 % of Control,207.5 ± 38.2 n = 3; p <0.05 % of Control,–,–
CCCS(=O)(=O)N1CCN(C(=O)COc2ccc(OC)cc2)CC1,143.0 ± 6.9 n = 2 % of Control,224.3 ± 66.3 n = 3; p <0.05 % of Control,–,–
"CC(=O)NC(=Cc1ccc(Cl)cc1)C(=O)N1CCOCC1 [D, N-[2-(4-chlorophenyl)-1-(4-morpholinylcarbonyl)vinyl]acetamide]",–,–,showed induction of oligodendrocyte precursor maturation,–
"Br.COc1ccc(C2=CSC3=NCCN23)cc1F [F, 3-(3-fluoro-4-methoxyphenyl)-5,6-dihydroimidazo[2,1-b][1,3]thiazole hydrobromide]",–,–,showed induction of oligodendrocyte precursor maturation,Akt phosphorylation (Akt): clearly detected
"CNTF: ciliary neurotrophic factor, neurotrophin used as positive control for cell differentiation in primary screening (protein, UniProt P26441 1-200, looked up) Ciliary neurotrophic factor: MAFTEHSPLTPHRRDLCSRSIWLARKIRSDLTALTESYVKHQGLNKNINLDSADGMPVASTDQWSELTEAERLQENLQAYRTFHVLLARLLEDQQVHFTPTEGDFHQAIHTLLLQVAAFAYQIEELMILLEYKIPRNEADGMPINVGDGGLFEKKLWGLKVLQELSQWTVRSIHDLRFISSHQTGIPARGSHYIANNKKM",–,–,–,"oligodendrocyte progenitor morphological changes indicative of cell maturation ([3]; positive control, 10 ng/ml, 48 hrs): marked oligodendrocyte progenitor morphological changes"
